Measurements as given in US9296704B2, “Substituted pyrimidines as protein kinase inhibitors” (CELGENE AVILOMICS RESEARCH, INC., priority 2007, dated 2016).

Key:
JAK3 = target: T1, JAK3 (Homo sapiens, UniProt P52333); test: Omnia assay for potency against JAK3; format: biochemical; settings: read-out: JAK3 Inhibition
T1 sequence (P52333 1-1124): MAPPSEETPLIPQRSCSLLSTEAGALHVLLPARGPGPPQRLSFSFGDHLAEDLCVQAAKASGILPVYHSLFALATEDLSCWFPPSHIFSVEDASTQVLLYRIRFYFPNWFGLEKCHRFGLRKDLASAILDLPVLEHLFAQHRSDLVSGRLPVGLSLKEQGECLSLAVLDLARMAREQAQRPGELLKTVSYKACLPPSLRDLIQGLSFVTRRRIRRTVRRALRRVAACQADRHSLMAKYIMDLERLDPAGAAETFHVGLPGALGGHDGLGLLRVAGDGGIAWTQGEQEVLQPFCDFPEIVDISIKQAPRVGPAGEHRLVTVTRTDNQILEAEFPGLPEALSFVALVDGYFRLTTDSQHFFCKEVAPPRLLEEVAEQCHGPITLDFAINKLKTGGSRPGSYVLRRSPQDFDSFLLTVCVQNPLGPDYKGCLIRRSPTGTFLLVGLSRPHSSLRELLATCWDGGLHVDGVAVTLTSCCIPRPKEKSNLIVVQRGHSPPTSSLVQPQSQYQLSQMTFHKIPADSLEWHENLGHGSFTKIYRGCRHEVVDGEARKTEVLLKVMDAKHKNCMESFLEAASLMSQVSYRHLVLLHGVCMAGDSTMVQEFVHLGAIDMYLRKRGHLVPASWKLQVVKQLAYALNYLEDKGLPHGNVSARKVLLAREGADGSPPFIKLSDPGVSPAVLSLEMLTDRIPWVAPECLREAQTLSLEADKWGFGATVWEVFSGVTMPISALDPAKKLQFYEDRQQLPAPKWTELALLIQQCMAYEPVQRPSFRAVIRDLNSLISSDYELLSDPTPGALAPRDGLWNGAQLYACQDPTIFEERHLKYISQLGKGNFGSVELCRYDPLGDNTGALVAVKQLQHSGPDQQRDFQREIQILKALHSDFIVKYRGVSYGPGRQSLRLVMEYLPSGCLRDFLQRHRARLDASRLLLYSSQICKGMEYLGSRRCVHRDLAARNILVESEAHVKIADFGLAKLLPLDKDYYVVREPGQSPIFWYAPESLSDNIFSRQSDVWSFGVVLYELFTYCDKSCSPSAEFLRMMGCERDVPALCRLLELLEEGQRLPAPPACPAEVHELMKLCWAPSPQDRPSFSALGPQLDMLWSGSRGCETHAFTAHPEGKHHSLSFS
Procedure, shortened: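 Continuous-read Omnia kinase assay with 5 nM JAK3, 5 μM ATP (near apparent Km) and 5 μM Y12-Sox peptide in Tris pH 7.5/MgCl2 buffer; enzyme pre-incubated with compound 30 min at 27 °C. Fluorescence (ex360/em485) read over 60 min; initial velocities fitted against inhibitor concentration to give IC50.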

ITK = target: T2, ITK (Homo sapiens, UniProt Q08881); test: Omnia assay for potency against ITK; format: biochemical; settings: read-out: ITK inhibition
T2 sequence (Q08881 1-620): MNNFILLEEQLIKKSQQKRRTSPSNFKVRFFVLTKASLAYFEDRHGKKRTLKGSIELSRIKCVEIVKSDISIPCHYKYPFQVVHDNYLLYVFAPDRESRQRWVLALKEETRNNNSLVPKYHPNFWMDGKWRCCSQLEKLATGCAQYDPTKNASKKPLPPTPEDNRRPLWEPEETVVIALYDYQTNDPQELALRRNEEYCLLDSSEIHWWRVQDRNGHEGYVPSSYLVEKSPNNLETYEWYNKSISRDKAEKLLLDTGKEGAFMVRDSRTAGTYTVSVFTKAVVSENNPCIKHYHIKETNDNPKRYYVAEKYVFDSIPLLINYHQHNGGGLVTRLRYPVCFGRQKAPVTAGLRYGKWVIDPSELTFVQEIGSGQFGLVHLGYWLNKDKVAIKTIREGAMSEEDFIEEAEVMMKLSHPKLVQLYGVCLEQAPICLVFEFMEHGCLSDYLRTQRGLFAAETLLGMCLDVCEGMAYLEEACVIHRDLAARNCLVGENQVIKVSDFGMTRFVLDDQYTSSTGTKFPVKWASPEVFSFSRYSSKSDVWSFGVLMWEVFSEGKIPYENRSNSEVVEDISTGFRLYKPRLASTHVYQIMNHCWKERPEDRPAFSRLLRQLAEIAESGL
Description: The protocol below describes continuous-read kinase assays to measure inherent potency of compounds against active forms of EGFR (WT) and EGFR (T790M/L858R) enzymes. The mechanics of the assay platform are best described by the vendor (Invitrogen, Carlsbad, Calif.) on their website at the following URL: http://www.invitrogen.com/content.cfm?pageid=11338 or http://www.invitrogen.com/site/us/en/home/Products-and-Services/Applications/Drug-Discovery/Target-and-Lead-Identification-and-Validation/KinaseBiology/KB-Misc/Biochemical-Assays/Omnia-Kinase-Assays.html.
Briefly, 10× stocks of EGFR-WT (PV3872) from Invitrogen and EGFR-T790M/L858R (40350) from BPS Bioscience, San Diego, Calif., 1.13×ATP (AS001A) and appropriate Tyr-Sox conjugated peptide substrates (KCZI001) were prepared in 1× kinase reaction buffer consisting of 20 mM Tris, pH 7.5, 5 mM MgCl2, 1 mM EGTA, 5 mM β-glycerophosphate, 5% glycerol (10× stock, KB002A) and 0.2 mM DTT (DS001A). 5 μL of each enzyme were pre-incubated in a Corning (#3574) 384-well, white, non-binding surface microtiter plate (Corning, NY) for 30 min. at 27° C. with a 0.5 μL volume of 50% DMSO and serially diluted compounds prepared in 50% DMSO. Kinase reactions were started with the addition of 45 μL of the ATP/Tyr-Sox peptide substrate mix and monitored every 30-90 seconds for 60 minutes at λex360/λem485 in a Synergy^4 plate reader from BioTek (Winooski, Vt.). At the conclusion of each assay, progress curves from each well were examined for linear reaction kinetics and fit statistics (R^2, 95% confidence interval, absolute sum of squares). Initial velocity (0 minutes to ˜30 minutes) from each reaction was determined from the slope of a plot of relative fluorescence units vs time (minutes) and then plotted against inhibitor concentration to estimate IC50 from log [Inhibitor] vs Response, Variable Slope model in GraphPad Prism from GraphPad Software (San Diego, Calif.).
This example describes continuous-read kinase assays to measure inherent potency of compound against active forms of ITK enzymes as described in Example 10 above except that the modified ITK-optimized reagent conditions are: • [ITK]=10 nM, [ATP]=25 μM, [Y6-Sox]=10 μM (ATP KMapp=33 μM).

SMILES	IC50 (JAK3) [nM]	IC50 (ITK) [nM]
C=CC(=O)Nc1cccc(Nc2cc(Nc3cccc(Br)c3)ncn2)c1 [I-1, N-{3-[6-(3-bromophenylamino)-pyrimidin-4-ylamino]-phenyl}-2-propenamide]	≤ 10	–
C=CC(=O)Nc1cccc(Nc2cc(Nc3ccc(Oc4ccccc4)cc3)ncn2)c1 [I-13, N-{3-[6-(4-phenoxyphenylamino)-pyrimidin-4-ylamino]phenyl}-2 propenamide]	100 to 1000	1000 to 10000
C=CC(=O)Nc1cccc(Nc2cc(Nc3ccc(Oc4ccccc4)cc3)ncn2)n1 [I-63]	10 to 100	1000 to 10000
CN(C)C/C=C/C(=O)Nc1cccc(Nc2cc(Nc3ccc(Oc4ccccc4)cc3)ncn2)n1 [I-64, (E)-4-(dimethylamino)-N-(6-(6-(4-phenoxyphenylamino)pyrimidin-4-ylamino)pyridine-2-yl)but-2-enamide]	≤ 10	10 to 100
C=CC(=O)Nc1cccc(Nc2cc(Oc3cccc(C)c3)ncn2)n1 [I-65]	≤ 10	10 to 100
C=CC(=O)Nc1cccc(Nc2cc(Oc3ccc(Oc4ccccc4)cc3)ncn2)n1 [I-66]	100 to 1000	1000 to 10000
C=CC(=O)N(C)c1cccc(Nc2cc(Nc3ccc(Oc4ccccc4)cc3)ncn2)n1 [I-78, N-methyl-N-(6-(6-(4-phenoxyphenylamino)pyrimidin-4-ylamino)pyridin-2-yl)acrylamide]	≤ 10	10 to 100
CN(C)C/C=C/C(=O)N(C)c1cccc(Nc2cc(Nc3ccc(Oc4ccccc4)cc3)ncn2)n1 [I-79, (E)-4-(dimethylamino)-N-methyl-N-(6-(6-(4-phenoxyphenylamino)pyrimidin-4-ylamino)pyridine-2-yl)but-2-enamide]	≤ 10	≤ 10
Cc1cccc(Oc2cc(Nc3cccc(NC(=O)/C=C/CN(C)C)n3)ncn2)c1 [I-81]	≤ 10	10 to 100
C=CC(=O)Nc1cccc(Nc2cc(Nc3ccccc3)ncn2)n1 [I-94]	≤ 10	10 to 100
